Experimental findings from US6667336B2, “GlyT-1 inhibitors” (NPS Allelix Corp., priority 2002, dated 2003) are described below.

In the data set the test system is male CD-1 mice. As to the kind of experiment: 5 day chronic oral dosing toxicity study in mice (clinical signs). It counts as in vivo. Details: key to Clinical signs (observation code), Day 1, 24 hours / Clinical signs (observation code), Day 2, 24 hours / Clinical signs (observation code), Day 3, 24 hours / Clinical signs (observation code), Day 4, 24 hours / Clinical signs (observation code), Day 5, 24 hours / Clinical signs (observation code), Day 1, 4 hours / Clinical signs (observation code), Day 2, 4 hours / Clinical signs (observation code), Day 3, 4 hours / Clinical signs (observation code), Day 4, 4 hours / Clinical signs (observation code), Day 5, 4 hours: 0: Appeared Normal; 1: Activity (inc./dec.); 2: Sedation/Lethargy; 3: Piloerection; 4: Stereotypy; 5: Soft Stool; 6: Chromodacryorrhea; 7: Epistaxis; 8: Cyanosis; 9: Flaccidity; 10: Respiration; 11: Hunched Posture; 12: Enophthalmia; 13: Exophthalmia; 14: Palpabral Ptosis; 15: Loss of Righting; 16: Chromaturia; 17: Salivation; 18: Lacrimation; 19: Miosis; 20: Mydriasis; 21: Rigidity; 22: Ataxia; 23: Tremors; 24: Convulsions; 25: Catalepsy; 26: Lateral Recumbency; 27: Death. Conditions: for Toxicity profile in comparison (compounds of formula 1 vs other GlyT1 inhibitors of similar potency): 5 day oral dosing in mice, tables 1-18. The protocol:
This example illustrated a 5 day chronic oral dosing toxicity study with GlyT1 inhibitors. […] Behavioral observations (clinical signs) and body weights were recorded daily for all compounds tested. Male CD-1 mice were purchased from Charles River Labs (Kingston, N.Y.). The animals weighed between 20-25 grams upon arrival. Animals were acclimatized in a temperature/humidity (72° ±5° F./50%±5%) controlled vivarium, with a common 12 hour light/dark cycle (Lights on 0700 hrs) for 5 days prior to test. All animals were allowed food (Purina Labdiete® Rodent chow # 5001) and water (supplied by Elizabethtown Water Company) ad libitum during the acclimation period and throughout the study. On the day prior to test initiation animals were randomly assigned to groups: All animals chosen for test weighed at least 20 grams and appeared in good condition. Each animal was dosed once daily for 5 days. Animals remained on site for a 3 day recovery period following the chronic dosing period.
A stock concentration of each test compound was prepared fresh on the day of study initiation. Aliquots were diluted to the needed concentrations for daily dosing. Stock solutions were kept in a refrigerator when not in use. Each compound was dissolved in a small amount of distilled water. One equivalent of sodium hydroxide (2 N) may have been added to aid in dissolution of each test agent. Vehicle was then added quantum sufficiat to give the final volume. Final volumes were adjusted to reflect percent free base when appropriate. The vehicle used in this experiment was Hydroxypropyl-β-cyclodextrine (HPCD) Acros, lot 011849601, dissolved in distilled water to form a 10% weight/volume concentration. The pH was adjusted, using sodium hydroxide (2 N), to equal that of the test agents (usually between 8 to 10). All prepared test compounds were either in solution, and clear, or in suspension, and slightly cloudy. Suspensions were mixed immediately prior to use.
All animals were administered either test compound or vehicle Per Os (PO) via 21 gauge gavage needles, in volumes of 10.0 ml/kg. Daily body weights were used to determine individual dosing volumes. All test compounds were weighed on a Denver Instruments analytical balance (model # A-250). Animals were weighed on a top loading Ohaus portable balance model # LS2000.
Animals were assessed for overt behaviors (clinical signs) immediately following administration of test agents, then again at 4 and 24 hours. Animals were assessed for 27 separate clinical signs:
Toxicity data obtained through the assay as described above is provided in Tables 1 to 14 for Compounds Gi to Gxiv inclusive. The animals were observed immediately following administration and again at 4 hours and 24 hours. Observations are reported using the code number from the following chart: […]

Setting [1] is: 40 mg/kg/day PO, male CD-1 mice, one line per animal.
Where [2] appears, read: dose 10 (m↓kg) PO, mice, one line per animal.
Where [3] appears, read: dose 25 (m↓kg) PO, mice, one line per animal.

“And” between values parts separate entries of the source, which are not always exact repeats. Identical values can stand only once. Marks after values point to notes of the source that are not given here.

For the compound `Cc1cscc1/C(=C\CN(C)CC(=O)O)c1ccc(-c2cccc(C(F)(F)F)c2)cc1` [Compound G(xi), (Z)-N-(1-(4-(3-(Trifluoromethyl)phenyl)phenyl)-1-(3-(4-methylthienyl))prop-1-en-3-yl)sarcosine], under setting [1], the “Clinical signs (observation code), Day 1, 4 hours” value (“Clinical signs … Day 1, 4 hours” below) was 0; the “Clinical signs (observation code), Day 1, 24 hours” value (from here on “Clinical signs … Day 1, 24 hours”) came out at 0; the “Clinical signs (observation code), Day 2, 4 hours” value (“Clinical signs … Day 2, 4 hours” for short) is 0; the “Clinical signs (observation code), Day 2, 24 hours” value (from here on “Clinical signs … Day 2, 24 hours”) amounted to 0. In addition, under setting [1], the “Clinical signs (observation code), Day 3, 4 hours” value (“Clinical signs … Day 3, 4 hours” below) was found to be 0; the “Clinical signs (observation code), Day 3, 24 hours” value (“Clinical signs … Day 3, 24 hours” for short) is reported as 0; the “Clinical signs (observation code), Day 4, 4 hours” value (shortened to “Clinical signs … Day 4, 4 hours”) was found to be 0; the “Clinical signs (observation code), Day 4, 24 hours” value (shortened to “Clinical signs … Day 4, 24 hours”) was determined as 0. For the same compound, under setting [1], the “Clinical signs (observation code), Day 5, 4 hours” value (“Clinical signs … Day 5, 4 hours” below) came to 0.

Take `COc1cccc(-c2ccc(/C(=C/CN(C)CC(=O)O)c3cscc3C)cc2)c1` [Compound G(xii), (Z)-N-(1-(4-(3-Methoxyphenyl)phenyl)-1-(3-(4-methylthienyl))prop-1-en-3-yl)sarcosine]: under setting [1], the “Clinical signs … Day 1, 4 hours” value is 0; the “Clinical signs … Day 1, 24 hours” value is reported as 0; the “Clinical signs … Day 2, 4 hours” value is 0; the “Clinical signs … Day 2, 24 hours” value was 0. Besides, under setting [1], the “Clinical signs … Day 3, 4 hours” value worked out at 0; the “Clinical signs … Day 3, 24 hours” value amounted to 0; the “Clinical signs … Day 4, 4 hours” value stood at 0; the “Clinical signs … Day 4, 24 hours” value came to 0. In addition, the “Clinical signs … Day 5, 4 hours” value under setting [1] is given as 0.

Consider `Cc1cccc(-c2ccc(/C(=C/CN(C)CC(=O)O)c3sccc3C)cc2)c1` [Compound G(xiii), (Z)-N-(1-(4-(3-Methylphenyl)phenyl)-1-(2-(3-methylthienyl))prop-1-en-3-yl)sarcosine], for which, under setting [1], the “Clinical signs … Day 1, 4 hours” value came to 0; the “Clinical signs … Day 1, 24 hours” value is reported as 0; the “Clinical signs … Day 2, 4 hours” value is on record as 0; the “Clinical signs … Day 2, 24 hours” value stood at 0. Moreover, under setting [1], the “Clinical signs … Day 3, 4 hours” value is on record as 0; the “Clinical signs … Day 3, 24 hours” value is 0; the “Clinical signs … Day 4, 4 hours” value came out at 0; the “Clinical signs … Day 4, 24 hours” value is recorded as 0. Moreover, the “Clinical signs … Day 5, 4 hours” value under setting [1] stood at 0.

Turning to `Cc1ccccc1/C(=C\CN(C)CC(=O)O)c1ccc(-c2ccsc2)cc1` [Compound G(xiv), (Z)-N-(1-(4-(3-Thienyl)phenyl)-1-(2-methylphenyl)prop-1-en-3-yl)sarcosine], under setting [1], the “Clinical signs … Day 1, 4 hours” value turned out to be 0; the “Clinical signs … Day 1, 24 hours” value is recorded as 0; the “Clinical signs … Day 2, 4 hours” value is recorded as 0; the “Clinical signs … Day 2, 24 hours” value is 0. Besides, under setting [1], the “Clinical signs … Day 3, 4 hours” value is 0; the “Clinical signs … Day 3, 24 hours” value stood at 0; the “Clinical signs … Day 4, 4 hours” value stood at 0; the “Clinical signs … Day 4, 24 hours” value worked out at 0. Under setting [1], the “Clinical signs … Day 5, 4 hours” value stood at 0 and the “Clinical signs (observation code), Day 5, 24 hours” value worked out at 0.

In the case of `CC(C)c1ccc(/C(=C/CN(C)CC(=O)O)c2ccsc2)cc1` [Compound H, reference compound], the “Toxicity profile in comparison (compounds of formula 1 vs other GlyT1 inhibitors of similar potency)” value is listed as “higher toxicity profile”.

In the case of `CN(C/C=C(\c1ccccc1)c1ccc(-c2ccsc2)cc1)CC(=O)O` [Compound I, reference compound], the “Toxicity profile in comparison (compounds of formula 1 vs other GlyT1 inhibitors of similar potency)” value is listed as “higher toxicity profile”. Under setting [1], the “Clinical signs … Day 1, 24 hours” value is given as 0; the “Clinical signs … Day 2, 24 hours” value is given as 0; the “Clinical signs … Day 3, 24 hours” value is given as 0; the “Clinical signs … Day 4, 24 hours” value is on record as 0.

For the compound `CN(C/C=C(\c1ccccc1)c1ccc(-c2ccccc2)cc1)CC(=O)O` [Compound J, reference compound], the “Toxicity profile in comparison (compounds of formula 1 vs other GlyT1 inhibitors of similar potency)” value is given as “higher toxicity profile”. Further, the “Clinical signs … Day 4, 4 hours” value (PO, mice, one line per animal) turned out to be 0. Moreover, under setting [2], the “Clinical signs … Day 1, 4 hours” value was found to be 0; the “Clinical signs … Day 2, 4 hours” value is given as 0; the “Clinical signs … Day 3, 4 hours” value turned out to be 0; the “Clinical signs … Day 5, 4 hours” value was 0. Under setting [3], the “Clinical signs … Day 1, 24 hours” value is given as 0; the “Clinical signs … Day 2, 24 hours” value was 0 and 2.

Consider `CN(C/C=C(/c1ccc(-c2cccc(C(F)(F)F)c2)cc1)c1ccc(Cl)s1)CC(=O)O` [Compound K, reference compound], for which the “Toxicity profile in comparison (compounds of formula 1 vs other GlyT1 inhibitors of similar potency)” value is listed as “higher toxicity profile”. In addition, under setting [1], the “Clinical signs … Day 1, 4 hours” value is 1 and 0 (2×); the “Clinical signs … Day 1, 24 hours” value is listed as 27*.
